Assays:
[1] = system: 3T3-L1 preadipocyte cells; assay: In vitro adipogenesis (oil red-O); assay type: cell-based, murine; settings: for adipocyte differentiation (oil red-O): 1 μM, 100 nM and 1 nm, 8 days
Method: 3T3-L1 preadipocyte cells were cultured to confluency. Two days after the cells reached confluency was considered as day 0. At day 0, cells were treated with the induction media [10% calf serum/DMEM containing 1 μg/ml insulin, 1 μM dexamethasone and 500 μM isobutylmethylxanthine (IBMX). Two days after induction medium treatment (day 2), the cells were treated with insulin [10% calf serum/DMEM containing 1 μg/ml insulin. Full differentiation was usually achieved after 8 days from day 0. To test the effect of the test compound on the differentiation of 3T3-L1 preadipocytes to adipocytes, the test compounds K068 and K100 at 1 μM, 100 nM and 1 nm concentrations were used in different concentrations throughout differentiation (for 8 days starting from day 0). For assessment of adipogenesis the differentiated cells were fixed in 4% paraformaldehyde w/v for 20 min, washed with PBS and stained with 0.34% Oil Red 0 in 60% isopropanol for 15 minutes. Then it was washed with PBS thrice and stain was extracted with 80% isopropanol by keeping it at room temperature for 30 minutes on an orbital shaker. OD of the extracted dye was taken at 520 nm.

calvarial osteoblasts [2] = assay: Alkaline phosphatase activity assay in calvarial osteoblasts; assay type: cell-based, neonatal Sprague-Dawley rats
Method: (§1) Neonatal rat calvarial cell cultures are prepared as described previously (Chattopadhyay et al., Endocrinology 145:3451-62, 2004) using slight modification. Briefly, for calvarial osteoblast cultures, frontal and parietal bones from neonatal Sprague-Dawley rats (1-3 day old) were digested in 0.1% collagenase/0.1% dispase in α-MEM to obtain 5 sequential digests. The second through fifth digests are combined and grown to confluence at 37° C. and 5% CO2 in air in α-MEM, supplemented with 10% fetal bovine serum (FBS), 2 mM glutamine, 100 U/ml penicillin-streptomycin, non-essential amino acid solution and sodium pyruvate.
For alkaline phosphatase (ALP) assay, osteoblasts were plated in 96-well (2000 cells/well) plates in regular growth medium. Twenty-four hours later, when the cells formed a confluent monolayer, medium was replaced with α-MEM medium supplemented with 10% FBS, 10 mM β-glycerophosphate and 50 μg/ml ascorbic acid. Treatment was given with varying concentration of the test compound K012, K058, K068 and K100 at 1 nM and 100 nM concentration. Forty-eight hours after induction, ALP activity of the osteoblasts was determined as described by Akiyama et al (Exp Cell Res 235:362-369, 1997) with slight modifications. Briefly, cells were washed once with PBS and ALP activity was measured by adding ALP buffer (1 M diethanolamine, 0.5 mM MgCl2, 1 mg/ml PNPP, pH 9.0), incubating in 37° C., and absorbance (405 nm) was measured using a microplate spectrophotometer. Statistical significance was determined by paired two-tailed Student's t-tests.

Bone marrow cells (BMCs) = assay: In vitro mineralization from mouse bone marrow; assay type: cell-based, balb/c mice; settings: 1 nM and 100 nM, 21 days
Excerpt: Adult balb/c mice were used in this study. Bone marrow cells (BMCs) were harvested from the femurs and tibias of the animals, as described elsewhere (Maniatopoulos et al. Cell Tissue Res 1988:254:317-30.; Ishaug et al., J Biomed Mater Res 1997; 36:17-28.). Briefly, bones were aseptically excised from the hind limbs of the mice following ether euthanasia. The soft tissue was removed, and the proximal end of the femur and distal end of the tibia were clipped off using sterile scissors, a hole was created in the knee joint end of each bone with an needle, and the marrow was flushed from the shaft with control medium (CM) which consisted of α-MEM supplemented with 10% fetal calf serum, 100 U/ml penicillin, 100 U/ml streptomycin (Sigma, Chemical Co., St. Louis, Mo., USA). The cells were suspended in this medium, and the cell suspensions from all bones were combined in a centrifuge tube. The suspension was spun down at 800 rpm for 5 min. Cells were counted by using a haemocytometer. The supernatant was aspirated, and the pellet was re-suspended in fresh CM and then seeded into 12-well plates. 200000 cells/well were cultured in 12-well plates and in a humidified atmosphere, with 5% CO2, at 37° C. in the same medium supplemented with 10 mM-β-glycerophosphate, 50 μg/ml L-ascorbic acid and 10^−8M dexamethasone with different concentration of the test compound. This medium was replaced every other day (John et al. Trends. Biomater. Artif. Organs 2002:16(1):28-33.; Connolly. Clin Orthop 1995:313: 8-18.; Gebhart and Lane. Acta Orthop Belg 1991:57(2):130-43.; Gurpinar et al. J Biomater Appl 2003; 18(1):25-33; Lan and Wang, Blood Substitutes. Biotechnol 2003; 31(1):59-68.). Treatments K012, K058, K068 and K0100 at 1 nM and 100 nM concentration were given for 21 days and after completion of the treatment samples were rinsed with PBS followed by fixation (4% HCHO for […]). Samples were then rinsed with nanopure water and stained for 10 min with 40 mM AR-S, pH 4.2, at room temperature. Photomicrographs of the stained wells were taken. Subsequently, alizarin red-S stain was extracted using 10% (w/v) CPC in […] sodium phosphate, pH 7.0, for […] at room temperature, and the resulting solutions were read on a Microplate reader with a test wavelength of 540 nm against a reference wavelength of 620 nm.

3T3-L1 preadipocytes = assay: Semi-quantitative RT-PCR of adipogenic genes; assay type: cell-based, murine; settings: 10^−7 & 10^−9M, 8 d
Method: RT-PCR was performed for assessing the expression of PPAR-γ (peroxisome proliferator-activated receptor) and adiponectin. The house keeping gene GAPDH was used as the internal control in this study. 3T3-L1 preadipocytes were cultured under differentiation condition to form adipocytes in the presence of K068 and K100 at 10^−6, 10^−7 and 10^−9 M concentrations for 8 days. Following the culture, cellular RNA was extracted and RT-PCR performed using a kit (Fermentas) according to manufacturer's instructions.

calvarial osteoblasts [3] = assay: In vitro mineralization of calvarial osteoblasts (alizarin red-S, von kossa); assay type: cell-based, neonatal Sprague-Dawley rats; settings: for Von kossa staining (mineralized nodules) compared with controls (vehicle): 21 days culture
Method: as §1
Ability of cells to produce mineralized matrix is important with regard to development of materials for bone regeneration. Mineralization of extracellular matrix by osteoblasts was determined using alizarin red-S (AR-S) assay combined with cetylpyridinium chloride (CPC) extraction. (Stanford et al, J. Biol. Chem. 270:9420-9428; 1995.) Alizarin red is a dye that binds selectively to nascent calcium salts and is widely used for calcium mineral histochemistry. Cells were seeded onto a six well plate containing 10000 cells/well in culture medium supplemented with 10 mM β-glycerophosphate and 50 μg/ml ascorbic acid with test compounds K012, K058, K068 and K0100 at 1 nM and 100 nM concentration. Treatment was given for 21 days and after completion of the treatment samples were rinsed with PBS followed by fixation (4% HCHO for 20 min). Photomicrographs of the stained wells were taken. Subsequently, alizarin red-S stain was extracted using 10% (w/v) cetylpyridinium chloride (CPC) in […] sodium phosphate, pH 7.0, for 15 min at room temperature, and the resulting solutions were read on a Microplate reader with a test wavelength of 540 nm against a reference wavelength of 620 nm. Mineralization nodules were also seen by Von kossa staining procedure (A. M. Chou et al. Materials Science and Engineering C 20 (2002) 77-83.) After 21 days culture, cells in tissue culture wells were washed with PBS and immersed in 5% (w/v) silver nitrate solution for 45 min. After rinsing with distilled water, they were fixed in 5% (w/v) sodium bicarbonate formalin for 8 min. Finally, they were immersed in 5% (w/v) sodium thiosulphate solution for 5 min and washed thoroughly with water for 15 min and photomicrographs were taken.

Ishikawa cells = assay: In vitro estrogenicity / anti-estrogenicity (ALP induction); assay type: cell-based, human; settings: 10^−11 to 10^−6 M, 72 h
Method: The expression of alkaline phosphatase is induced in Ishikawa cells in response to estrogen or estrogen like substances (Littlefield et al, Endocrinology. 1990 December; 127(6):2757-62.). Ishikawa cells were plated in 96-well flat bottomed microtiter plates at a density of 5000 cells/well and cultured in phenol red free DMEM containing 10% charcoal treated FCS. After 24 h of plating, cells were serum-starved for 12 h. Thereafter, for testing estrogenicity of compounds, the cells were treated with different concentrations (10^−6 to 10^−11 M) of pure compounds K058 and K012. Same concentrations of Raloxifene were also used for comparison. Estrogen concentration of 10^−8 M was used as a positive control. Compound treatments were performed for 72 h at 37° C. in CO2 incubator. Experiments were repeated 4 times. For the anti-estrogenicity studies, the compounds K012 and K058 at 10^−6 to 10^−11 M were added with 10^−8 M estrogen. After 72 h of incubation, the media was removed and the plates were washed twice with PBS and dried by tapping, gently. Freeze fracture of cells was achieved by placing the plates at −70° C. for 15, min followed by bringing to room temperature. The plates were then placed on ice and 50 μl of ice cold diethanolamine solution (5 mM P-nitrophenyl phosphate (PNP) and 0.25 mM MgCl2 in 1 M diethanolamine) was added to each well. The plates were then placed at 37° C. for 30 minutes for color (yellow) development is a function of ALP activity. Absorbance was measured at 405 nm.

SMILES | anti-adipogenic activity in 3T3 L1 cell line (summary of in vitro effects) [1] | adipocyte differentiation (oil red-O) [1] | osteoblast differentiation (summary of in vitro effects) (calvarial osteoblasts [2]) | mineralization of bone marrow osteoblasts (alizarin red staining) (Bone marrow cells (BMCs)) | mRNA levels of PPAR-γ (3T3-L1 preadipocytes) | mRNA levels of adiponectin (3T3-L1 preadipocytes) | osteoblast mineralization (summary of in vitro effects) (calvarial osteoblasts [3]) | Von kossa staining (mineralized nodules) compared with controls (vehicle) (calvarial osteoblasts [3]) | ALP levels (estrogenicity) (Ishikawa cells)
O=C1CC(c2ccc(O)cc2)Oc2cc(O)c(C3O[C@H](CO)[C@@H](O)[C@H](O)[C@H]3O)c(O)c21 (some centres unmarked) [K068, 6-Glucopyranosyl-4′,5,7-trihydroxyflavanone] | have anti-adipogenic activity | significantly inhibited | promoted | stimulated | decreased | decreased | promoted | increased | 
O=C(c1ccc(OCCN2CCCCC2)cc1)c1c(-c2ccc(O)cc2)sc2cc(O)ccc12 [raloxifene, reference compound] |  |  |  |  |  |  |  |  | no response
O=C1c2c(cc(O)c([C@@H]3OC(CO)[C@@H](O)[C@H](O)C3O)c2O)O[C@@H](c2ccc(O)cc2)[C@@H]1O (stereo partly drawn) [K100, (2S,3S)-(+)-4′,5,7-trihydroxydihydroflavonol-6-C-β-D-glucopyranoside] | have anti-adipogenic activity | significantly inhibited | promoted | stimulated | decreased | decreased | promoted | increased | 

Reference: patent publication US8669232B2, “Flavonol compounds, a bioactive extract/fraction from Ulmus wallichiana and its compounds for prevention for treatment of osteo-health related disorders” (Council of Scientific & Industrial Research, priority 2008, dated 2014)
